Measured values as given in ChEMBL document CHEMBL5532666 (J Med Chem, 2024).
The source made the active and inactive calls. The calls are words filed in the database; no cut-off is given here.

Assays:
HCT-116 [1] = test: Cell cycle arrest in human HCT-116 cells expressing […] assessed as G2/M phase cells at 10 uM incubated for 72 hrs by Hoechst33342 staining based analysis (reference value: 38%); format: functional
[2] = molecular target: T1, Serine/threonine-protein kinase 26 (Homo sapiens, UniProt Q9P289); test: Binding affinity to N-terminal 6His-tagged TEV fused MST4 (unknown origin) expressed in Escherichia coli BL21 (DE3) cells assessed as dissociation constant by ITC analysis
Target sequence in this assay (Q9P289 whole entry, the tested form may be a part): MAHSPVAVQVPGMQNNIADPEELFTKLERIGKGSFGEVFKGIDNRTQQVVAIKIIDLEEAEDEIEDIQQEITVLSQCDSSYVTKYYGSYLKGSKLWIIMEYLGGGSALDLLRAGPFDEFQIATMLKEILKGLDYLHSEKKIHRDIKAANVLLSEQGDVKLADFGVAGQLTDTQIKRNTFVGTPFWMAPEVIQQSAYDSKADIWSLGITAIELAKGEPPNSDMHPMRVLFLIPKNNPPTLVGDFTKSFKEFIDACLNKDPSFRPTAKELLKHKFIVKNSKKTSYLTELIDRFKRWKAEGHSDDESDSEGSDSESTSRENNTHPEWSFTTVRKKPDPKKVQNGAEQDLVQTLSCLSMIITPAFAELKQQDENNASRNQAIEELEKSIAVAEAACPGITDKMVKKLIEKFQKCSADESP

[3] = molecular target: T1, Serine/threonine-protein kinase 26; test: Binding affinity to C-terminal full length human MST4 expressed in intact HEK293T cells incubated for 2 hrs by NanoBRET assay; format: cell-based
Target sequence in this assay (Q9P289 whole entry, the tested form may be a part): as above

[4] = molecular target: T2, Serine/threonine-protein kinase 3 (Homo sapiens) (UniProt Q13188); settings: dose 10.0 µM
T2 sequence (whole entry): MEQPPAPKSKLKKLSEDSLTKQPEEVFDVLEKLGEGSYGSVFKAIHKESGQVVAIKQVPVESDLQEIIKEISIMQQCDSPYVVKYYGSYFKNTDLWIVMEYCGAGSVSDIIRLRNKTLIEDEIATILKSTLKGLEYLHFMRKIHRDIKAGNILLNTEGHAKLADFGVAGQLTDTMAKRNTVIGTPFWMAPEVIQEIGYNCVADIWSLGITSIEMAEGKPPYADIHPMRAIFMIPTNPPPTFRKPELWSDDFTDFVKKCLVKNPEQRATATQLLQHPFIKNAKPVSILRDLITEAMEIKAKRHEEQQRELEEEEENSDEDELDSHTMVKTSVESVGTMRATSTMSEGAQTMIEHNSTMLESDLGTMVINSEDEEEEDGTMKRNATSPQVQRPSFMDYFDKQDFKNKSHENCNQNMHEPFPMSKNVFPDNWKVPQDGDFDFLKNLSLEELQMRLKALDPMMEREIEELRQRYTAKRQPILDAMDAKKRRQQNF
Description: Binding affinity to recombinant MST2 (unknown origin) kinase domain assessed as thermal stabilization by measuring change in melting temperature at 10 uM by DSF analysis

LIM domain kinase 1 [5] = molecular target: T3, LIM domain kinase 1 (Homo sapiens, UniProt P53667); test: Inhibition of wildtype LIMK1 (unknown origin) assessed as residual activity at 1 uM relative to control
Target sequence in this assay (P53667 whole entry, looked up, the tested form may be a part): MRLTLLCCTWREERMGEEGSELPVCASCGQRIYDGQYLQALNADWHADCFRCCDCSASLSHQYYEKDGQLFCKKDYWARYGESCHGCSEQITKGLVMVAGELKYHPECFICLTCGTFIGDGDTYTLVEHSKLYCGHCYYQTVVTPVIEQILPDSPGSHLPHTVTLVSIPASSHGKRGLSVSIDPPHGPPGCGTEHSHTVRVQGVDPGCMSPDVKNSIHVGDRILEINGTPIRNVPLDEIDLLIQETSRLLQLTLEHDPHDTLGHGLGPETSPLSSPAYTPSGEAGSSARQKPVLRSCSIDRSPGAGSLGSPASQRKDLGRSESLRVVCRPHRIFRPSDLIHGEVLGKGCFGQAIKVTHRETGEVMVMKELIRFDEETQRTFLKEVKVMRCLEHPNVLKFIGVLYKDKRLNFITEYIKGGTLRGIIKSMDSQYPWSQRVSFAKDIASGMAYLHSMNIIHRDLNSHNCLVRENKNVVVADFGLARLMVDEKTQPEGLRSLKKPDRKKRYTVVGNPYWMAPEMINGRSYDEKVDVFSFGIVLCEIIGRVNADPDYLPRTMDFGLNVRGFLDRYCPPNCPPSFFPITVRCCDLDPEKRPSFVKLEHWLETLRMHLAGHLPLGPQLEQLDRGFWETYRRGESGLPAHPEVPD

LIM domain kinase 2 [6] = molecular target: T4, LIM domain kinase 2 (Homo sapiens, UniProt P53671); test: Inhibition of wildtype LIMK2 (unknown origin) assessed as residual activity at 1 uM relative to control
Target sequence in this assay (P53671 whole entry, looked up, the tested form may be a part): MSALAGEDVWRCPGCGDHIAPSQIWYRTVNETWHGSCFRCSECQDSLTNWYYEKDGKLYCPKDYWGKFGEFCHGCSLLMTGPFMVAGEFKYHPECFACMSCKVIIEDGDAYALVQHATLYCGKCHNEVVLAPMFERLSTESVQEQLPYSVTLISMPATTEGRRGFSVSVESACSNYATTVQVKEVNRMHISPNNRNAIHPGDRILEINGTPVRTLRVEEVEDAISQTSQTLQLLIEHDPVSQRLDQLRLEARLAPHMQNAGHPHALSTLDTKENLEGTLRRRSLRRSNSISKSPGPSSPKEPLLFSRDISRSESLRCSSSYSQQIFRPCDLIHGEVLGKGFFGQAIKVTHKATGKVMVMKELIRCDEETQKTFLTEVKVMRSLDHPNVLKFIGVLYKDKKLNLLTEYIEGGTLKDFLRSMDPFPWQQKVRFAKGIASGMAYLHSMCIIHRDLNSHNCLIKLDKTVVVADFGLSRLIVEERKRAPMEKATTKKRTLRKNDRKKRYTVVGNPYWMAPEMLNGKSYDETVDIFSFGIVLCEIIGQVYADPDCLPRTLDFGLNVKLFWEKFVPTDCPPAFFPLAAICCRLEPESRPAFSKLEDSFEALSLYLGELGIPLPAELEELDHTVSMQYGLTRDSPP

LIM domain kinase 2 [7] = molecular target: T4, LIM domain kinase 2; test: Binding affinity to LIMK2 (unknown origin) expressed in intact HEK293T cells incubated for 2 hrs by NanoBRET assay; format: cell-based
Target sequence in this assay (P53671 whole entry, the tested form may be a part): as the sequence (P53671 whole entry, looked up, the tested form may be a part) above

[8] = molecular target: T1, Serine/threonine-protein kinase 26; test: Inhibition of wildtype MST4 (unknown origin) assessed as residual activity at 1 uM relative to control
Target sequence in this assay (Q9P289 2-416 limits assumed): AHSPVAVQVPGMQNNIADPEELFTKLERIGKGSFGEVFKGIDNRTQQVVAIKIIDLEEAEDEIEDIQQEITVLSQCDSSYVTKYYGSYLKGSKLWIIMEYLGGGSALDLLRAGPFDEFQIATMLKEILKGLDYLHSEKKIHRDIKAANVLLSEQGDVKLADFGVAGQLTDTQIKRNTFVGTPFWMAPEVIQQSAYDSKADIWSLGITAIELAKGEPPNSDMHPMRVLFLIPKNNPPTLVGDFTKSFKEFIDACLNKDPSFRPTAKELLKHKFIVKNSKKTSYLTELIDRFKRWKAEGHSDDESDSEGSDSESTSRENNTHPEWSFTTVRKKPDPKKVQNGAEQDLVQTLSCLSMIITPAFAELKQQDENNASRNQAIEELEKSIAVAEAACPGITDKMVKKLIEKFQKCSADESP

[9] = molecular target: Dual specificity protein kinase CLK1 (Homo sapiens) (UniProt P49759); test: Binding affinity to CLK1 (unknown origin) assessed as thermal stabilization by measuring change in melting temperature by DSF analysis
HCT-116 [10] = test: Cell cycle arrest in human HCT-116 cells expressing […] assessed as G1 phase cells at 1 uM incubated for 72 hrs by Hoechst33342 staining based analysis (reference value: 52%); format: functional
LIM domain kinase 2 [11] = molecular target: T4, LIM domain kinase 2; test: Binding affinity to LIMK2 (unknown origin) expressed in permeabilized HEK293T cells incubated for 2 hrs by NanoBRET assay; format: cell-based
Target sequence in this assay (P53671 whole entry, the tested form may be a part): as the sequence (P53671 whole entry, looked up, the tested form may be a part) above

LIM domain kinase 1 [12] = molecular target: T3, LIM domain kinase 1; test: Binding affinity to LIMK1 (unknown origin) expressed in permeabilized HEK293T cells incubated for 2 hrs by NanoBRET assay; format: cell-based
Target sequence in this assay (P53667 whole entry, the tested form may be a part): as the sequence (P53667 whole entry, looked up, the tested form may be a part) above

[13] = molecular target: T1, Serine/threonine-protein kinase 26; test: Binding affinity to N-terminal 6His-tagged TEV fused MST4 (unknown origin) expressed in Escherichia coli BL21 (DE3) cells assessed as change in binding enthalpy by ITC analysis
Target sequence in this assay (Q9P289 2-416 limits assumed): as the sequence (Q9P289 2-416 limits assumed) above

[14] = Metabolic stability in Sprague-Dawley rat liver microsomes assessed as parent compound remaining at 10 uM preincubated with NADPH for 5 mins followed by microsomal addition and measured upto 60 mins by HPLC analysis; format: ADME, Microsome; settings: time < 65 min, read-out: Stability
[15] = molecular target: T1, Serine/threonine-protein kinase 26; test: Binding affinity to N-terminal 6His-tagged TEV fused MST4 (unknown origin) expressed in Escherichia coli BL21 (DE3) cells assessed as offset in binding entropy change by ITC analysis
Target sequence in this assay (Q9P289 2-416 limits assumed): as above

HCT-116 [16] = test: Cell cycle arrest in human HCT-116 cells expressing […] assessed as G1 phase cells at 10 uM incubated for 72 hrs by Hoechst33342 staining based analysis (reference value: 52%); format: functional
[17] = Toxicity in human HCT-116 cells expressing FUCCI assessed as reduction in cell viability at 1 uM measured after 48 hrs by Hoechst33342 staining based analysis; settings: hct-116, 48 h
[18] = molecular target: Glycogen synthase kinase-3 beta (Homo sapiens) (UniProt P49841); test: Binding affinity to GSK3B (unknown origin) assessed as thermal stabilization by measuring change in melting temperature by DSF analysis
[19] = molecular target: Serine/threonine-protein kinase 24 (Homo sapiens, UniProt Q9Y6E0); settings: dose 10.0 µM
Description: Binding affinity to recombinant MST3 (unknown origin) kinase domain assessed as thermal stabilization by measuring change in melting temperature at 10 uM by DSF analysis

[20] = molecular target: T5, Serine/threonine-protein kinase RIO1 (Homo sapiens) (UniProt Q9BRS2); test: Binding affinity to RIOK1 (unknown origin) assessed as thermal stabilization by measuring change in melting temperature by DSF analysis
T5 sequence (whole entry): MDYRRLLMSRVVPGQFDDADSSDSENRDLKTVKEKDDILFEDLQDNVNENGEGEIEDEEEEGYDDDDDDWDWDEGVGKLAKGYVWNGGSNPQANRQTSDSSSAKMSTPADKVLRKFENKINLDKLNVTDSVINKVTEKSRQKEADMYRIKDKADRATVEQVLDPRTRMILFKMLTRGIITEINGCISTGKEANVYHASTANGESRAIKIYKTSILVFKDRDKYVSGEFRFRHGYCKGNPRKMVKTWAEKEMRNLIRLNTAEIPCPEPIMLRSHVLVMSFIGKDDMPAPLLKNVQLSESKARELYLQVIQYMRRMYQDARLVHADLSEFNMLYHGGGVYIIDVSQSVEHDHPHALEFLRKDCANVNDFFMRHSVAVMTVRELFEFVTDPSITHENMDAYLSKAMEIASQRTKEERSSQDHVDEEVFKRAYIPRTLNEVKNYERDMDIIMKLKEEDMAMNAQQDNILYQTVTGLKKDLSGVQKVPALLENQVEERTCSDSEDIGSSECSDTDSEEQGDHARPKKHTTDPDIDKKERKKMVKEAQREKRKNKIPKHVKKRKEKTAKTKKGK

[21] = molecular target: T1, Serine/threonine-protein kinase 26; settings: dose 10.0 µM
Target sequence in this assay (Q9P289 2-416 limits assumed): as the sequence (Q9P289 2-416 limits assumed) above
Description: Binding affinity to recombinant MST4 (unknown origin) kinase domain assessed as thermal stabilization by measuring change in melting temperature at 10 uM by DSF analysis

Chain of Dual specificity protein kinase CLK1 (Homo sapiens) (P49759 whole entry, looked up): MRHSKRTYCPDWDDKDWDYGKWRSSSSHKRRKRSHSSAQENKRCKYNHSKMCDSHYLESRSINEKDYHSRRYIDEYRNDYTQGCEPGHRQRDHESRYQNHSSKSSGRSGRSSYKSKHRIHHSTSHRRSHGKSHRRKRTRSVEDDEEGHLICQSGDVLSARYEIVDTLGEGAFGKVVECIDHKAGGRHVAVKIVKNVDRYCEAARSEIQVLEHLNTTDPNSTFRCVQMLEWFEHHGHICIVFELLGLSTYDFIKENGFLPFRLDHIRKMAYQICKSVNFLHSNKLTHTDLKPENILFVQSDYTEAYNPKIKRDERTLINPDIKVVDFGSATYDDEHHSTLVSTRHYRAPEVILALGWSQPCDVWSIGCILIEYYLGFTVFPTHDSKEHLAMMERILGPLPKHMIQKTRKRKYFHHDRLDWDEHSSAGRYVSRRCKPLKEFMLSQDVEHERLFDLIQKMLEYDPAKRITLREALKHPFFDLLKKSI
Chain of Serine/threonine-protein kinase 24 (Q9Y6E0 whole entry, looked up): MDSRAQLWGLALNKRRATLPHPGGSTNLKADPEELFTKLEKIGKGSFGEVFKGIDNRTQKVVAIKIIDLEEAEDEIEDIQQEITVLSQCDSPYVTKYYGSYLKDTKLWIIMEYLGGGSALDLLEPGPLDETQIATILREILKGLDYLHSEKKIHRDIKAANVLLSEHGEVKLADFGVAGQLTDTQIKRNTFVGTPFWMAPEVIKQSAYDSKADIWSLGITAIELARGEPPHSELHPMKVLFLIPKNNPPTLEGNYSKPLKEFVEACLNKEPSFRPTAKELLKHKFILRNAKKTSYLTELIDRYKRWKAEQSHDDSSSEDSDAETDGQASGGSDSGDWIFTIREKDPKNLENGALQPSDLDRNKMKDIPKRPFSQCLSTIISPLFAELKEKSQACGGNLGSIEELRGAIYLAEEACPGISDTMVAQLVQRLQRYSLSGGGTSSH
Chain of Glycogen synthase kinase-3 beta (Homo sapiens) (P49841 whole entry, looked up): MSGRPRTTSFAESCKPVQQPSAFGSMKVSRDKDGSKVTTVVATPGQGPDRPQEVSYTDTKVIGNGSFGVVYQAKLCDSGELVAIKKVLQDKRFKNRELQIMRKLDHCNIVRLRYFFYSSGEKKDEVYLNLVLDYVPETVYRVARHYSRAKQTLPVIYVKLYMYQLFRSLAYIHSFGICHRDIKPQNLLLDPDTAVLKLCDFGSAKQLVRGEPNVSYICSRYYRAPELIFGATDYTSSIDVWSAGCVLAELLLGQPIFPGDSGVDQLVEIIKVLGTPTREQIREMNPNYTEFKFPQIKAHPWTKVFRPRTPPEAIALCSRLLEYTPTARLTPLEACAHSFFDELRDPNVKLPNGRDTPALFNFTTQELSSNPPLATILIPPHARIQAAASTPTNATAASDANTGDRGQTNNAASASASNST

## O=C1NCCCCCNc2nc(c3ccccc3n2)Nc2cc1[nH]n2
HCT-116 [1]
  Activity: 33%
[2]
  Kd: 0.115 µM
[3]
  EC50: 1.43 µM
[4]
  ΔTm: 1.1 °C
LIM domain kinase 1 [5]
  Activity: 36.6%
LIM domain kinase 2 [6]
  Activity: 38.2%
LIM domain kinase 2 [7]
  EC50: 1.78 µM
[8]
  Activity: 18%
[9]
  ΔTm: 5.1 °C
HCT-116 [10]
  Activity: 57%
LIM domain kinase 2 [11]
  EC50: 1 µM
LIM domain kinase 1 [12]
  EC50: 2.48 µM
[13]
  Activity: Active
[14]
  remaining at 1 h, 10 µM: 88%
[15]
  Activity: Active
HCT-116 [16]
  Activity: 40%
[17]
  Activity: Non-Toxic
[18]
  ΔTm: 5.1 °C
[19]
  ΔTm: 7.5 °C
[20]
  ΔTm: 5.1 °C
[21]
  ΔTm: 7.4 °C
